Consider 2 molecules from ChEMBL document CHEMBL1130648, “The synthesis of a new type of anthracene DNA intercalator” (Bioorg Med Chem Lett, 1998).

The assay concerns Nucleic Acid. Put plainly: Compound was tested for binding affinity against CT DNA. In kind it is nucleic-acid assay. Conditions: Bos taurus.

The molecule `NCc1c2ccccc2cc2ccccc12` gave a Binding affinity of 10000 M⁻¹.

As for `COc1cc2c(CCCN)c3cc(OC)c(OC)cc3c(CCCN)c2cc1OC`, the Binding affinity amounted to 40000 M⁻¹.
